BindingDB's records for doi:10.1111/cbdd.12458 (Pontificia Universidad Catolica De Chile, 2015)

How the values were obtained:
[1] = target: T1, Amine oxidase [flavin-containing] B (Rattus norvegicus, UniProt P19643); assay: Monoamine Oxidase Inhibition Assay
T1 sequence (P19643 whole entry): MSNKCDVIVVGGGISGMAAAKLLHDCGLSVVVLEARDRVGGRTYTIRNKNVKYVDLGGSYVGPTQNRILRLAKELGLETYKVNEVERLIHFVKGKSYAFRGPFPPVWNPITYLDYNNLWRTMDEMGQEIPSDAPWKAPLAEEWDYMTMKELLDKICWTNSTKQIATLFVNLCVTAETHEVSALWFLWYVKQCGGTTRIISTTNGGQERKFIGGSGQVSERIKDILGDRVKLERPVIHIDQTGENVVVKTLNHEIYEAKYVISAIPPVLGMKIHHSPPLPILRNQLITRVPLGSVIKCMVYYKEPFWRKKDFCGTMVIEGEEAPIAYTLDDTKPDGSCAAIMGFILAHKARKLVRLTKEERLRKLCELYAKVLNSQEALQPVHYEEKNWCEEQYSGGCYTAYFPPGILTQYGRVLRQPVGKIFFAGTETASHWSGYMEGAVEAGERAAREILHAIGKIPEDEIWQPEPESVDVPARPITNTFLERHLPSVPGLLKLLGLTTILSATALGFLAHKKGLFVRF
Description: (§1) Briefly, a crude rat brain mitochondrial suspension (male Sprague Dawley rats weighing 180 220 g, killed by decapitation) was used as protein source. Serotonin(5-HT, 100 µM) and 4-dimethylaminophenethylamine (DMAPEA, 5 µM) were used as selective substrates for MAO-A and MAO-B, respectively. The reaction mixtures were analyzed with a Merck-Hitachi HPLC (Tokyo, Japan), employing a C18 reverse phase column (Lichrospher 250 9 4.6 mm, 5 µm) and an amperometric detector (Merck Recipe L3500A). Tetrahydrofuran and acetonitrile (Merck) were used as eluents.

[2] = target: T2, Amine oxidase [flavin-containing] A (Rattus norvegicus, UniProt P21396); assay: Monoamine Oxidase Inhibition Assay
T2 sequence (P21396 whole entry): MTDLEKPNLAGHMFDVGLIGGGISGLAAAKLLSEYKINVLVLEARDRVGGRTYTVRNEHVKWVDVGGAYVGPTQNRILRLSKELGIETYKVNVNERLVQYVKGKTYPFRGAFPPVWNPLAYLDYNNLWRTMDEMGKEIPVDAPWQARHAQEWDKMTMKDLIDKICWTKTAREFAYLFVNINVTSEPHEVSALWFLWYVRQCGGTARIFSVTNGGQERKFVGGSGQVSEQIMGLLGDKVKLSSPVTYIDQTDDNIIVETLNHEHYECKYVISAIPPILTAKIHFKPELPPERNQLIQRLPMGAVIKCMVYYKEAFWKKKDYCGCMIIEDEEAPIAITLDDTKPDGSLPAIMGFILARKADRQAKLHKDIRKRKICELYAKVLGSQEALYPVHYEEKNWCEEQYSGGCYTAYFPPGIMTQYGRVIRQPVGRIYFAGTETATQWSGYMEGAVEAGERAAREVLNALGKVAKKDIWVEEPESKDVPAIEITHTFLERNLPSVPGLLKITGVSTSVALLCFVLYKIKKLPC
Description: as §1

| Structure (SMILES) | IC50 [1] [µM] | IC50 [2] [µM] |
| --- | --- | --- |
| COc1ccc(OC)c(/C=C/C(=O)c2c(O)cccc2OC)c1 [(E)-3-(2,5-Dimethoxyphenyl)-1-(2-hydroxy-6-methoxyphenyl)prop-2-en-1-one (3a)] | 10.9 | > 100 |
| COc1ccc(O)c(C(=O)/C=C/c2cc(OC)c(Br)cc2OC)c1 [(E)-3-(4-Bromo-2,5-dimethoxyphenyl)-1-(2-hydroxy-5-methoxyphenyl)prop-2-en-1-one (3h)] | 2.8 | > 100 |
| COc1ccc2c(c1)C(=O)/C(=C/c1cccc(OC)c1OC)O2 [(Z)-2-(2,3-Dimethoxybenzylidene)-5-methoxybenzofuran-3(2H)-one (4g)] | 11.6 | > 100 |
| COc1ccc(OC)c(/C=C2\Oc3cccc(OC)c3C2=O)c1 [(Z)-2-(2,5-Dimethoxybenzylidene)-4-methoxybenzofuran-3(2H)-one (4a)] | 17.8 | > 100 |
| COc1cc(/C=C2\Oc3cccc(OC)c3C2=O)c(OC)cc1Br [(Z)-2-(4-Bromo-2,5-dimethoxybenzylidene)-4-methoxybenzofuran-3(2H)-one (4d)] | 26.3 | > 100 |

The remaining compounds from weak to strong by IC50 [1], led by results:

| IC50 [1] [µM] | IC50 [2] [µM] | Structure (SMILES) |
| --- | --- | --- |
| 13.5 | > 100 | COc1ccc2c(c1)C(=O)/C(=C/c1cc(OC)c(Br)cc1OC)O2 [(Z)-2-(4-Bromo-2,5-dimethoxybenzylidene)-5-methoxybenzofuran-3(2H)-one (4h)] |
| 6.8 | > 100 | COc1ccc(O)c(C(=O)/C=C/c2cccc(OC)c2OC)c1 [(E)-3-(2,3-Dimethoxyphenyl)-1-(2-hydroxy-5-methoxyphenyl)prop-2-en-1-one (3g)] |
| 6.1 | > 100 | COc1cc(/C=C/C(=O)c2c(O)cccc2OC)c(OC)cc1Br [(E)-3-(4-Bromo-2,5-dimethoxyphenyl)-1-(2-hydroxy-6-methoxyphenyl)prop-2-en-1-one (3d)] |
